# Test results reported in patent US20240041715A1, “PROCESS FOR TREATING HUMAN PERSPIRATION AND BODY ODORS USING MAGNESIUM OXIDE AND A PHOSPHATE SALT” (L' OREAL, priority 2020, published 2024).
# Experiment: in vitro "sniff test" model of deodorant effectiveness using human sweat incubated at 37° C.
# Details: average odor intensity rating, scores from 1=weak odor to 8=very strong odor, single ingredient
# Procedure: The deodorant effectiveness of different KH2PO4/MgO mixtures at different molar ratios was studied in vitro in a “sniff test” model using human sweat incubated at 37° C.
row,SMILES,Odor intensity
1,"O=P([O-])(O)O.[K+] [KH2PO4, potassium dihydrogen phosphate]",8
2,"[O]=[Mg] [MgO, magnesium oxide]",1
